The source of these data is patent US20220183972A1, “NANOEMULSION HYDROPHOBIC […]” (VERTOSA INC., priority 2018, published 2022).

For data set [1] the following is noted: cited from earlier work.
Data set [2] is described as follows: Emulsion droplet size by DLS, Polyglyceryl-4 main surfactants. Particulars: 1 g cannabinoid oil, 0.7 g olive oil, 2.5 g Polyglyceryl-4 surfactant, 1.5 g sunflower lecithin, 40 g water, 80% amplitude. It is filed as physicochemical.
For data set [3] the following is noted: cited from earlier work. The source holds these as a separate data set.

Like-named read-outs stand apart in the source and are kept apart here.

Regarding Vitamin E TPGS 200, the HLB in data set [1] (Table 1) is recorded as 6.3.

Polyglyceryl-4 Isostearate: in data set [2], the “final emulsion droplet average size” value turned out to be 371 nm. Turning to Span 60, the HLB in data set [1] (Span surfactants, Example 10) is on record as 4.7. Take Vitamin E TPGS 4000: in data set [1] (Table 1), the HLB is given as 18.1.

As to Vitamin E TPGS 2000, in data set [1] (Table 1), the HLB was 16.5. In the case of Span 80, in data set [1] (Span surfactants, Example 10), the HLB is given as 4.3.

Tween 81: the HLB in data set [1] (Table 1) is 10.

Turning to Polyglyceryl-6 Stearate, the HLB in data set [1] (Table 1) is on record as 9. For Span 40, in data set [1] (Span surfactants, Example 10), the HLB is listed as 6.7. Regarding Vitamin E TPGS 300, the HLB in data set [1] (Table 1) was 8.2. On to Polyglyceryl-4 Caprate, for which the “final emulsion droplet average size” value in data set [2] worked out at 365 nm. In the case of `CCCCCc1cc(O)c2c(c1)OC(C)(C)[C@@H]1CCC(C)=C[C@@H]21` [THC, Tetrahydrocannabinol], in data set [3] (upon eating cannabis), the THC absorbed is recorded as 8-15%. Also, the “THC absorbed by lung” value in data set [3] (upon smoking cannabis) is 2-45%.

Turning to Polyglyceryl-6 oleate, the HLB in data set [1] (Table 1) is 9.

Polyglyceryl-4 Oleate: the “final emulsion droplet average size” value in data set [2] is 506 nm. As for Span 120, the HLB in data set [1] (Span surfactants, Example 10) was 4.7.
